Test results reported in patent US3956338A, “4,6-Dibromo-5-hydroxy-2-pyridine nitrile compounds and method of preparation” (The Dow Chemical Company, priority 1975, dated 1976).

Legend:
Barnyard Grass [1] = test: Post-emergent herbicide evaluation (Table I); type: in vivo; details: 4000 ppm, 2 weeks after treatment
Description: (§1) Pots are filled with a sandy soil, and plants of any species considered appropriate (such as pigweed, field bindweed, velvet leaf, cotton, barnyard grass, foxtail, wild oat, and crabgrass) are grown to an average height of 2 to 4 inches. Plants are then sprayed to run-off with an aqueous solution or dispersion containing the test chemical at the desired concentration. The plants are maintained in the greenhouse and are sub-irrigated as necessary. Final readings are made 2 weeks after treatment. Readings represent the percent kill or control of growth on the treated plants when compared to untreated plants, with 0 = no visible effects and 100 = all plants dead. Compounds found active are subsequently tested over a range of rates which are less than the initial rate. The procedure is the same as described above except that additional species (such as soybean, corn, wheat, ragweed, Johnson grass, etc.) are used. Additionally, test chemicals may be applied to the soil surface by drenching or as a solid to preclude contact with foliage. If foliage is sprayed, the pots are subsequently maintained by sub-irrigation; if chemical application is made to the soil, the pots are top-watered.

Beans [2] = test: Post-emergent herbicide evaluation (Table I); type: in vivo; details: 4000 ppm, 2 weeks after treatment
Description: as §1

Corn [3] = test: Post-emergent herbicide evaluation (Table I); type: in vivo; details: 4000 ppm, 2 weeks after treatment
Description: as §1

Cotton [4] = test: Post-emergent herbicide evaluation (Table I); type: in vivo; details: 4000 ppm, 2 weeks after treatment
Description: as §1

Crabgrass [5] = test: Post-emergent herbicide evaluation (Table I); type: in vivo; details: 4000 ppm, 2 weeks after treatment
Description: as §1

Cultured Rice [6] = test: Post-emergent herbicide evaluation (Table I); type: in vivo; details: 4000 ppm, 2 weeks after treatment
Description: as §1

German Millet [7] = test: Post-emergent herbicide evaluation (Table I); type: in vivo; details: 4000 ppm, 2 weeks after treatment
Description: as §1

Morning Glory [8] = test: Post-emergent herbicide evaluation (Table I); type: in vivo; details: 2000 ppm, 2 weeks after treatment
Description: as §1

Pigweeds [9] = test: Post-emergent herbicide evaluation (Table I); type: in vivo; details: 1000 ppm, 2 weeks after treatment
Description: as §1

Rape [10] = test: Post-emergent herbicide evaluation (Table I); type: in vivo; details: 1000 ppm, 2 weeks after treatment
Description: as §1

Sorghum/Milo [11] = test: Post-emergent herbicide evaluation (Table I); type: in vivo; details: 4000 ppm, 2 weeks after treatment
Description: as §1

Soybeans = test: Post-emergent herbicide evaluation (Table I); type: in vivo; details: 4000 ppm, 2 weeks after treatment
Description: as §1

Velvet Leaf [12] = test: Post-emergent herbicide evaluation (Table I); type: in vivo; details: 2 weeks after treatment
Description: as §1

White Winter Wheat [13] = test: Post-emergent herbicide evaluation (Table I); type: in vivo; details: 2000 ppm, 2 weeks after treatment
Description: as §1

Wild Oats [14] = test: Post-emergent herbicide evaluation (Table I); type: in vivo; details: 4000 ppm, 2 weeks after treatment
Description: as §1

Yellow Foxtail [15] = test: Post-emergent herbicide evaluation (Table I); type: in vivo; details: 4000 ppm, 2 weeks after treatment
Description: as §1

Barnyard Grass [16] = test: Pre-emergent herbicide evaluation (Table II); type: in vivo; details: 10 Lbs/Acre, about 2 weeks after treatment
From the text: (§2) Pots are filled to within 1 inch of the top with a medium-textured soil and seeds of any species considered appropriate (such as pigweed, field bindweed, velvet leaf, cotton, barnyard grass, foxtail, wild oat and crabgrass) are sown in their appropriate area. The seeds are then covered with a 1/2 inch layer of a sandy soil and test chemicals formulated at the desired concentration are drenched onto the soil surface in sufficient volume to wet the top 11/2 to 2 inches of soil. The pots are maintained in the greenhouse and are top-watered as necessary. Final readings are made about 2 weeks after treatment, the exact time depending upon the rate of plant growth. Readings are based on the germination and the growth of treated plants compared with that of untreated plants. Readings of 0% = no visible effects and 100% = all plants dead.
(§3) Compounds found active are subsequently tested over a range of rates which are less than the initial rate. The procedure is the same as described above with the exceptions that the seeds of appropriate species (such as soybean, corn, wheat, ragweed, Johnson grass, etc.) are covered with the same medium-textured soil used to fill the pot, and the chemicals are sprayed onto the soil surface at the desired rate in sufficient volume to cover and wet the soil surface. The pots are maintained, top-watered, and graded as described above.

Beans [17] = test: Pre-emergent herbicide evaluation (Table II); type: in vivo; details: 10 Lbs/Acre, about 2 weeks after treatment
From the text: as §2, §3

Bindweed [18] = test: Pre-emergent herbicide evaluation (Table II); type: in vivo; details: 10 Lbs/Acre, about 2 weeks after treatment
From the text: as §2, §3

Corn [19] = test: Pre-emergent herbicide evaluation (Table II); type: in vivo; details: 4 Lbs/Acre, about 2 weeks after treatment
From the text: as §2, §3

Cotton [20] = test: Pre-emergent herbicide evaluation (Table II); type: in vivo; details: about 2 weeks after treatment
From the text: as §2, §3

Crabgrass [21] = test: Pre-emergent herbicide evaluation (Table II); type: in vivo; details: 10 Lbs/Acre, about 2 weeks after treatment
From the text: as §2, §3

Cultured Rice [22] = test: Pre-emergent herbicide evaluation (Table II); type: in vivo; details: about 2 weeks after treatment
From the text: as §2, §3

German Millet [23] = test: Pre-emergent herbicide evaluation (Table II); type: in vivo; details: 2 Lbs/Acre, about 2 weeks after treatment
From the text: as §2, §3

Johnson Grass = test: Pre-emergent herbicide evaluation (Table II); type: in vivo; details: 4 Lbs/Acre, about 2 weeks after treatment
From the text: as §2, §3

Morning Glory [24] = test: Pre-emergent herbicide evaluation (Table II); type: in vivo; details: 4 Lbs/Acre, about 2 weeks after treatment
From the text: as §2, §3

Pigweeds [25] = test: Pre-emergent herbicide evaluation (Table II); type: in vivo; details: 2 Lbs/Acre, about 2 weeks after treatment
From the text: as §2, §3

Rape [26] = test: Pre-emergent herbicide evaluation (Table II); type: in vivo; details: 4 Lbs/Acre, about 2 weeks after treatment
From the text: as §2, §3

Sorghum/Milo [27] = test: Pre-emergent herbicide evaluation (Table II); type: in vivo; details: about 2 weeks after treatment
From the text: as §2, §3

Soybean = test: Pre-emergent herbicide evaluation (Table II); type: in vivo; details: 4 Lbs/Acre, about 2 weeks after treatment
From the text: as §2, §3

Velvet Leaf [28] = test: Pre-emergent herbicide evaluation (Table II); type: in vivo; details: 10 Lbs/Acre, about 2 weeks after treatment
From the text: as §2, §3

White Winter Wheat [29] = test: Pre-emergent herbicide evaluation (Table II); type: in vivo; details: 4 Lbs/Acre, about 2 weeks after treatment
From the text: as §2, §3

Wild Oats [30] = test: Pre-emergent herbicide evaluation (Table II); type: in vivo; details: about 2 weeks after treatment
From the text: as §2, §3

Yellow Foxtail [31] = test: Pre-emergent herbicide evaluation (Table II); type: in vivo; details: 10 Lbs/Acre, about 2 weeks after treatment
From the text: as §2, §3

Bindweed [32] = test: Comparison with BROMINIL as post-emergent herbicide; type: in vivo; details: post-emergence; post-emergent spray, 0.2% Tween 20, 300 gallons per acre; read-out: Concentration Required for adequate control
Description: (§4) All plants were grown in a greenhouse and sprayed with the test solution when they attained 1 to 2 inches in height. The test solutions were made up in water, using a 0.2% Tween 20 surfactant (polyoxyethylene derivative of a fatty acid partial ester of sorbitol) and were applied in a total spray volume equivalent to 300 gallons per acre.

Buckwheat = test: as above; type: in vivo; details: post-emergence; post-emergent spray, 0.2% Tween 20, 300 gallons per acre; read-out: Concentration Required for adequate control
Description: as §4

Morning Glory [33] = test: as above; type: in vivo; details: Ipomoea, post-emergence; post-emergent spray, 0.2% Tween 20, 300 gallons per acre; read-out: Concentration Required for adequate control
Description: as §4

Wheat = test: as above; type: in vivo; details: Triticum aestivum, post-emergence; post-emergent spray, 0.2% Tween 20, 300 gallons per acre; read-out: Concentration: minimum required for injury of wheat
Description: as §4

Wild Mustard = test: as above; type: in vivo; details: Brassica, post-emergence; post-emergent spray, 0.2% Tween 20, 300 gallons per acre; read-out: Concentration Required for adequate control
Description: as §4

Wild Oats [34] = test: as above; type: in vivo; details: for minimal effective concentration: Avena fatua, post-emergence, post-emergent spray, 0.2% Tween 20, 300 gallons per acre, read-out: Concentration Required for adequate control
Description: as §4

plants = test: Comparison with BROMINIL as post-emergent herbicide, overall; type: in vivo; details: Example 2(C)
Description: as §4

weeds = test: Post- and pre-emergent herbicide evaluation, weeds overall; type: in vivo; details: Examples 2(A) and 2(B)
Description: as §1, with “The procedure is the same as described above except that additional species (such as soybean, corn, wheat, ragweed, Johnson grass, etc.) are used. Additionally, test chemicals may be applied to the soil surface by drenching or as a solid to preclude contact with foliage. If foliage is sprayed, the pots are subsequently maintained by sub-irrigation; if chemical application is made to the soil, the pots are top-watered.” left out
(§5) Pots are filled to within 1 inch of the top with a medium-textured soil and seeds of any species considered appropriate (such as pigweed, field bindweed, velvet leaf, cotton, barnyard grass, foxtail, wild oat and crabgrass) are sown in their appropriate area. […] Final readings are made about 2 weeks after treatment, the exact time depending upon the rate of plant growth. Readings are based on the germination and the growth of treated plants compared with that of untreated plants. Readings of 0% = no visible effects and 100% = all plants dead. […]

crop plants = test: Post- and pre-emergent herbicide evaluation, crop plants overall; type: in vivo; details: at concentrations effective for weed control
Description: as §1, with “The procedure is the same as described above except that additional species (such as soybean, corn, wheat, ragweed, Johnson grass, etc.) are used. Additionally, test chemicals may be applied to the soil surface by drenching or as a solid to preclude contact with foliage. If foliage is sprayed, the pots are subsequently maintained by sub-irrigation; if chemical application is made to the soil, the pots are top-watered.” left out
as §5

two-spotted spider mites = test: Standard screening test, control of two-spotted spider mites; type: in vivo; details: 400 parts per million
Staphylococcus aureus = test: Standard screening test, growth inhibition of microorganism; type: cell-based; details: 500 ppm
Solubility = type: physicochemical

Structure (SMILES): N#Cc1cc(Br)c(O)c(Br)n1 [4,6-dibromo-5-hydroxy-2-pyridine nitrile]
- Percent Control (Barnyard Grass [1]): 75%
- Percent Control (Beans [2]): 70%
- Percent Control (Corn [3]): 0%
- Percent Control (Cotton [4]): 100%
- Percent Control (Crabgrass [5]): 100%
- Percent Control (Cultured Rice [6]): 0%
- Percent Control (German Millet [7]): 85%
- Percent Control (Morning Glory [8]): 100%
- Percent Control (Pigweeds [9]): 100%
- Percent Control (Rape [10]): 100%
- Percent Control (Sorghum/Milo [11]): 0%
- Percent Control (Soybeans): 0%
- Percent Control (Velvet Leaf [12]; 1000 ppm): 85%
- Percent Control (Velvet Leaf [12]; 2000 ppm): 100%
- Percent Control (White Winter Wheat [13]): 0%
- Percent Control (Wild Oats [14]): 65%
- Percent Control (Yellow Foxtail [15]): 70%
- % Control (Barnyard Grass [16]): 40%
- % Control (Beans [17]): 60%
- % Control (Bindweed [18]): 25%
- % Control (Corn [19]): 20%
- % Control (Cotton [20]; 4 Lbs/Acre): 0%
- % Control (Cotton [20]; 10 Lbs/Acre): 100%
- % Control (Crabgrass [21]): 50%
- % Control (Cultured Rice [22]; 2 Lbs/Acre): 0%
- % Control (Cultured Rice [22]; 4 Lbs/Acre): 15%
- % Control (German Millet [23]): 40%
- % Control (Johnson Grass): 0%
- % Control (Morning Glory [24]): 15%
- % Control (Pigweeds [25]): 100%
- % Control (Rape [26]): 25%
- % Control (Sorghum/Milo [27]; 2 Lbs/Acre): 0%
- % Control (Sorghum/Milo [27]; 4 Lbs/Acre): 15%
- % Control (Soybean): 0%
- % Control (Velvet Leaf [28]): 40%
- % Control (White Winter Wheat [29]): 0%
- % Control (Wild Oats [30]; 4 Lbs/Acre): 70%
- % Control (Wild Oats [30]; 10 Lbs/Acre): 85%
- % Control (Yellow Foxtail [31]): 80%
- minimal effective concentration (Bindweed [32]): 4000 µg/mL
- minimal effective concentration (Buckwheat): 250 µg/mL
- minimal effective concentration (Morning Glory [33]): 1000 µg/mL
- minimal effective concentration (Wheat): 2000 µg/mL
- minimal effective concentration (Wild Mustard): 62 µg/mL
- minimal effective concentration (Wild Oats [34]): 500 µg/mL
- times more active than BROMINIL against wild oats (Wild Oats [34]; post-emergent, relative to BROMINIL): 8 times
- general activity relative to BROMINIL (plants): generally less active than BROMINIL
- herbicidal activity against weeds (weeds): moderately active herbicide against weeds
- activity against most crop plants (crop plants): low or nil activity against most crop plants
- control of two-spotted spider mites (two-spotted spider mites): 100%
- growth inhibition of Staphylococcus aureus (Staphylococcus aureus): inhibited growth
- solubility in the common organic solvents (Solubility; common organic solvents): soluble in the common organic solvents
- solubility in water (Solubility; water): essentially insoluble in water

Structure (SMILES): N#Cc1cc(Br)c(O)c(Br)c1 [BROMINIL, 3,5-dibromo-4-hydroxy benzonitrile]
- minimal effective concentration (Bindweed [32]): 500 µg/mL
- minimal effective concentration (Buckwheat): 16 µg/mL
- minimal effective concentration (Morning Glory [33]): 16 µg/mL
- minimal effective concentration (Wheat): 4000 µg/mL
- minimal effective concentration (Wild Mustard): 16 µg/mL
- minimal effective concentration (Wild Oats [34]): > 4000 µg/mL
